{
  "source": "paper PMC4559881",
  "about": "(Molecular Neurodegeneration, 2015)",
  "origin": "cited, not measured here",
  "key": {"[1]": {"tested_on": "CSF Aβ", "parameters": "method as in PMID 22090477", "conditions": "dogs, oral dose of 5 mg/kg; cited from earlier work"}, "[2]": {"tested_on": "CSF Aβ", "parameters": "method as in PMID 22090477", "conditions": "healthy volunteers, cited from earlier work"}, "[3]": {"tested_on": "brain Aβ", "parameters": "method as in PMID 22090477", "conditions": "PDAPP mice, doses ≥ 30 mg/kg p.o.; cited from earlier work"}, "[4]": {"conditions": "cited from earlier work"}, "[5]": {"tested_on": "deposited Aβ", "parameters": "method as in PMID 25164658", "conditions": "APP London mice, 4 months of dosing, 30 mg/kg; cited from earlier work"}, "[6]": {"conditions": "human, in vivo; cited from earlier work"}},
  "note": "Like-named read-outs stand apart in the source and are kept apart here.",
  "data": [
    {"compound": "C[C@@]1(c2cc(-c3cncnc3)c(F)cc2F)CCSC(N)=N1", "note": "[LY2811376]", "values": [
      {"measurement": "reduction of CSF Aβ", "setting": "[1]", "result": "approximately 70%"},
      {"measurement": "change of CSF Aβ", "setting": "[2]; oral dose 30 mg", "result": -20, "unit": "%"},
      {"measurement": "change of CSF Aβ", "setting": "[2]; oral dose 90 mg", "result": -54, "unit": "%"},
      {"measurement": "reduction of brain Aβ", "setting": "[3]", "result": "> 60", "unit": "%"},
      {"measurement": "toxicity finding in rats", "setting": "[4]", "result": "neuronal lipofuscinosis and degeneration"}
    ]},
    {"compound": "C[C@]1(c2cc(NC(=O)c3ccc(C#N)cn3)ccc2F)N=C(N)OCC1(F)F", "note": "[RO5508887]", "values": [
      {"measurement": "reduction of total deposited Aβ40", "setting": "[5]", "result": 28, "unit": "%"},
      {"measurement": "reduction of total deposited Aβ42", "setting": "[5]", "result": 45, "unit": "%"}
    ]},
    {"compound": "CC1(C#Cc2cnc3c(c2)[C@]2(COC(N)=N2)c2cc(-c4cccnc4F)ccc2O3)COC1", "note": "[AMG-8718]", "values": [
      {"measurement": "toxicity finding in rats", "setting": "[4]; high doses", "result": "retinal toxicity"}
    ]},
    {"compound": "NC1=N[C@@]2(c3cc(NC(=O)c4ccc(F)cn4)ccc3F)COC[C@H]2CS1", "note": "[LY2886721]", "values": [
      {"measurement": "liver finding in AD patients", "setting": "[6]", "result": "elevation of liver enzymes"}
    ]}
  ]
}
